Experimental data published in paper PMC6437697 (Journal of Medicinal Chemistry, 2019).

Assays:
Assay in all cases: KINOMEscan
Type in all cases: binding
Details in all cases: read-out: % control activity remaining
[1] = target: T1, ABL1(F317L)-nonphosphorylated (Homo sapiens, UniProt P00519, F317L)
T1 construct: purchased Eurofins DiscoverX KINOMEscan

[2] = target: T2, ABL1(T315I)-nonphosphorylated (Homo sapiens, UniProt P00519, T315I)
T2 construct: purchased Eurofins DiscoverX KINOMEscan

ACVR2B = target: T3, ACVR2B (Homo sapiens, UniProt Q13705)
T3 construct: purchased Eurofins DiscoverX KINOMEscan
T3 sequence (Q13705 19-512): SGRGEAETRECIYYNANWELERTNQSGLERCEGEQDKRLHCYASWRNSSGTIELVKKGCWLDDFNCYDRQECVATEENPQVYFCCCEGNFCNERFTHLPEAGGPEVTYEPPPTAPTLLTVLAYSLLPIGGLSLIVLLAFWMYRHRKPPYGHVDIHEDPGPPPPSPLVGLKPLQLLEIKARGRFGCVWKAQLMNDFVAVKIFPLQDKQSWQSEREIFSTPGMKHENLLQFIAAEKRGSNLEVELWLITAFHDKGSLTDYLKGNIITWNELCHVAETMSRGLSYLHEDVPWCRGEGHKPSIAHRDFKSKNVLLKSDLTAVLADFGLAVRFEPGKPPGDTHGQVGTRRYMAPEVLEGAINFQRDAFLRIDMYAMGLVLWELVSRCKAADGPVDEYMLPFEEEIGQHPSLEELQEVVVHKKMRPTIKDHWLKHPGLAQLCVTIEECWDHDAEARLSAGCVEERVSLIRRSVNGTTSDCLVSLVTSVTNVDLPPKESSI

ALK(L1196M) = target: T4, ALK(L1196M) (Homo sapiens, UniProt Q9UM73, L1196M)
T4 construct: purchased Eurofins DiscoverX KINOMEscan

BRSK1 = target: T5, BRSK1 (Homo sapiens, UniProt Q8TDC3)
T5 construct: purchased Eurofins DiscoverX KINOMEscan
T5 sequence (Q8TDC3 1-778): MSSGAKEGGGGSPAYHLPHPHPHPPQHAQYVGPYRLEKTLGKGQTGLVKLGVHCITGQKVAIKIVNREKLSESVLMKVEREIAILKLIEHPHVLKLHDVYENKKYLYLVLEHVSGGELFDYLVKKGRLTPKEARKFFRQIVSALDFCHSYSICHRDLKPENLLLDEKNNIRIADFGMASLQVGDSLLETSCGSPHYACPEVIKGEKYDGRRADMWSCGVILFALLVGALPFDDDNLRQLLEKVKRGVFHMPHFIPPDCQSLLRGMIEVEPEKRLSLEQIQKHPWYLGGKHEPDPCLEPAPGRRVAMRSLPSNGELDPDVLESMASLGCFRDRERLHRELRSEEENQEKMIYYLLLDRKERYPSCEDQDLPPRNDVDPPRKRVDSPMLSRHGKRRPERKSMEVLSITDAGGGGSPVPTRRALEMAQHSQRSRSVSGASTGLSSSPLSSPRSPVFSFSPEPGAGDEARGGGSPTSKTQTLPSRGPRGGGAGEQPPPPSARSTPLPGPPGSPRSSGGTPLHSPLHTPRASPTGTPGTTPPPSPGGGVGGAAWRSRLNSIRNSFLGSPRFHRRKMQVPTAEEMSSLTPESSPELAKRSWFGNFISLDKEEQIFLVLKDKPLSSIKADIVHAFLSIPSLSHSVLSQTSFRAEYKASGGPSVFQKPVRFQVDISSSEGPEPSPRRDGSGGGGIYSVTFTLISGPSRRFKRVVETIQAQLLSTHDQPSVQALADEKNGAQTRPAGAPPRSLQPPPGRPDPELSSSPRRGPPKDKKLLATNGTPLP

CDKL1 = target: T6, CDKL1 (Homo sapiens, UniProt Q00532)
T6 construct: purchased Eurofins DiscoverX KINOMEscan
T6 sequence (Q00532 whole entry): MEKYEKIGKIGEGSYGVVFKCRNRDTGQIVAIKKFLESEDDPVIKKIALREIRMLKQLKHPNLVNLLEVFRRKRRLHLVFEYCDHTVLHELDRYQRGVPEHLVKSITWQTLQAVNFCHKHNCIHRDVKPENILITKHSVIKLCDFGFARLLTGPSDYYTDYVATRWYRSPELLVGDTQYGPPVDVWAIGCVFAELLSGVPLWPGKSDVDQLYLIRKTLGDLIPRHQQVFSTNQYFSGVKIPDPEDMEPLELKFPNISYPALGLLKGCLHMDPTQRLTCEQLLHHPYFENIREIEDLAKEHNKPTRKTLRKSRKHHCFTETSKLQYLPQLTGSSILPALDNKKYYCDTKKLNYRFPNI

CSF1R = target: T7, CSF1R (Homo sapiens, UniProt P07333)
T7 construct: purchased Eurofins DiscoverX KINOMEscan
T7 sequence (P07333 20-972): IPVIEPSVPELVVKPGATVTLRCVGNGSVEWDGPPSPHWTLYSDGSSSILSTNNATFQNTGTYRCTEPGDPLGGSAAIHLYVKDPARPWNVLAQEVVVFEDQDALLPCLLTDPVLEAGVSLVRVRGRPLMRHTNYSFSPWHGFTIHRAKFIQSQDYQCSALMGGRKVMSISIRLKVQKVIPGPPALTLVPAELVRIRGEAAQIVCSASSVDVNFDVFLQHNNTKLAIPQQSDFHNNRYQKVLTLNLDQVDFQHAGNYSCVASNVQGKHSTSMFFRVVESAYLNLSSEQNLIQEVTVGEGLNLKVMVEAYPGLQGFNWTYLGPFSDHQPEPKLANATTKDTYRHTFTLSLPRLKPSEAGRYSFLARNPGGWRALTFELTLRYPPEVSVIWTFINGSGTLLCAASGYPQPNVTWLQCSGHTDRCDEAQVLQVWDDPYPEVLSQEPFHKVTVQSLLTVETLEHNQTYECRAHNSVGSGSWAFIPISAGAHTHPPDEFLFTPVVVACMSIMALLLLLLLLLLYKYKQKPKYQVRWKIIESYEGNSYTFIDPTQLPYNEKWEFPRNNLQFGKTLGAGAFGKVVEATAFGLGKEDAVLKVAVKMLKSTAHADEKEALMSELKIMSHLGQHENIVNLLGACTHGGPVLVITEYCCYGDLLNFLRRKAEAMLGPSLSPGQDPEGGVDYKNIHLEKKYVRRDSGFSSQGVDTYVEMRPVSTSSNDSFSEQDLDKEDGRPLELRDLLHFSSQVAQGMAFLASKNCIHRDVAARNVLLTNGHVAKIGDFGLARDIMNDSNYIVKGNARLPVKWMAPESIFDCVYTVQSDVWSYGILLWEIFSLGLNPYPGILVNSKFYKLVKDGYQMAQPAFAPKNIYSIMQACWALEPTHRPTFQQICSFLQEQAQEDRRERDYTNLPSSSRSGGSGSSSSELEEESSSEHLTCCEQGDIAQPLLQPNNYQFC

EGFR(T790M) = target: T8, EGFR(T790M) (Homo sapiens, UniProt P00533, T790M)
T8 construct: purchased Eurofins DiscoverX KINOMEscan
T8 sequence (P00533 25-1210 T790M limits assumed): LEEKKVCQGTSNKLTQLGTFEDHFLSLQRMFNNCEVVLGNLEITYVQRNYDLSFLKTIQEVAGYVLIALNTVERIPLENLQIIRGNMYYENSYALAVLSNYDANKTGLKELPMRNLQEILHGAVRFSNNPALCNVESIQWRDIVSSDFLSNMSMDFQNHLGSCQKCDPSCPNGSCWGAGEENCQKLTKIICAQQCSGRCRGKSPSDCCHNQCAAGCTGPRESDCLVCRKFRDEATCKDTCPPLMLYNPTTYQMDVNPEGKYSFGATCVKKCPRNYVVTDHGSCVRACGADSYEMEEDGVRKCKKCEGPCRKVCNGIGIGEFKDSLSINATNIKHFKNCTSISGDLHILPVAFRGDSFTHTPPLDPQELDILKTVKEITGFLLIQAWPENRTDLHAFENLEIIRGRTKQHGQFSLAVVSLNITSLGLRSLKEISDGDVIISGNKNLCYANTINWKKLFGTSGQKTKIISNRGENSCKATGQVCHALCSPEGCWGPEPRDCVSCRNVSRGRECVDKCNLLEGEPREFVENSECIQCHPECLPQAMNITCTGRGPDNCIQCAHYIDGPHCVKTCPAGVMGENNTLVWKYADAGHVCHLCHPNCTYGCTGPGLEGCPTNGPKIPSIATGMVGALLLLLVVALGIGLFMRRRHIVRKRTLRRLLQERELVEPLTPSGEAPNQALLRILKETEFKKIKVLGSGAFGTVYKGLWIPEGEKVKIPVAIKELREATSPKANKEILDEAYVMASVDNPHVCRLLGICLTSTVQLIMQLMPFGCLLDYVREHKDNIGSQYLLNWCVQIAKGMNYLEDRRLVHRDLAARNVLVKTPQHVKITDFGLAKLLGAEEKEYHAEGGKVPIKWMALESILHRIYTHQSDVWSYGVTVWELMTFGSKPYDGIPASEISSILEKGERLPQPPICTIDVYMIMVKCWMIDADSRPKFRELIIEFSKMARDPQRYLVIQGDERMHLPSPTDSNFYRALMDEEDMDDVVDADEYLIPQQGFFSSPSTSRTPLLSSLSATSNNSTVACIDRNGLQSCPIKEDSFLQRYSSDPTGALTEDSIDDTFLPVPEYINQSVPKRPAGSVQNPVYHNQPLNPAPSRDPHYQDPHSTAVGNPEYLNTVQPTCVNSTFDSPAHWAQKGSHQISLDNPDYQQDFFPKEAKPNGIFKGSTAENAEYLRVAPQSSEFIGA

FGFR3(G697C) = target: T9, FGFR3(G697C) (Homo sapiens, UniProt P22607, G697C)
T9 construct: purchased Eurofins DiscoverX KINOMEscan
T9 sequence (P22607 23-806 G697C): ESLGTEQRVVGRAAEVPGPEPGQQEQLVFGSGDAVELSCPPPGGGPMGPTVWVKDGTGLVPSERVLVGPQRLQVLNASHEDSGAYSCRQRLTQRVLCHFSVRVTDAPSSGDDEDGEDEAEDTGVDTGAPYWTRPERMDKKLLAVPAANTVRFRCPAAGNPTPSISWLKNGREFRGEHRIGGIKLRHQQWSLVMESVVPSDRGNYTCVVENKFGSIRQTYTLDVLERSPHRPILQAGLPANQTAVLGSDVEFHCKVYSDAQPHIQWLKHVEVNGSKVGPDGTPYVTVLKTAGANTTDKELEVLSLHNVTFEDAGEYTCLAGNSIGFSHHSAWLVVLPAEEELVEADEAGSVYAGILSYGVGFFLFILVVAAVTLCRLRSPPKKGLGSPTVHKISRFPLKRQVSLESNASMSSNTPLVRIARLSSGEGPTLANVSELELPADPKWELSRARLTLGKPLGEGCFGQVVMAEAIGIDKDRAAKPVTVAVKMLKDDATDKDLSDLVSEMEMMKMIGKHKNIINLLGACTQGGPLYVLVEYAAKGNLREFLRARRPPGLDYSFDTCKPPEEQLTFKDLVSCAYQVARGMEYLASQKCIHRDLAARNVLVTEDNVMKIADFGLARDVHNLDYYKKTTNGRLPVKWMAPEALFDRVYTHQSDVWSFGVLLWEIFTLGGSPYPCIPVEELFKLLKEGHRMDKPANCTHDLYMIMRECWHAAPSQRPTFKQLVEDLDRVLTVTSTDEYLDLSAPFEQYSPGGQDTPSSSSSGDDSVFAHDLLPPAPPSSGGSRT

MAP3K2 = target: T10, MAP3K2 (Homo sapiens, UniProt Q9Y2U5)
T10 construct: purchased Eurofins DiscoverX KINOMEscan
T10 sequence (Q9Y2U5 1-619): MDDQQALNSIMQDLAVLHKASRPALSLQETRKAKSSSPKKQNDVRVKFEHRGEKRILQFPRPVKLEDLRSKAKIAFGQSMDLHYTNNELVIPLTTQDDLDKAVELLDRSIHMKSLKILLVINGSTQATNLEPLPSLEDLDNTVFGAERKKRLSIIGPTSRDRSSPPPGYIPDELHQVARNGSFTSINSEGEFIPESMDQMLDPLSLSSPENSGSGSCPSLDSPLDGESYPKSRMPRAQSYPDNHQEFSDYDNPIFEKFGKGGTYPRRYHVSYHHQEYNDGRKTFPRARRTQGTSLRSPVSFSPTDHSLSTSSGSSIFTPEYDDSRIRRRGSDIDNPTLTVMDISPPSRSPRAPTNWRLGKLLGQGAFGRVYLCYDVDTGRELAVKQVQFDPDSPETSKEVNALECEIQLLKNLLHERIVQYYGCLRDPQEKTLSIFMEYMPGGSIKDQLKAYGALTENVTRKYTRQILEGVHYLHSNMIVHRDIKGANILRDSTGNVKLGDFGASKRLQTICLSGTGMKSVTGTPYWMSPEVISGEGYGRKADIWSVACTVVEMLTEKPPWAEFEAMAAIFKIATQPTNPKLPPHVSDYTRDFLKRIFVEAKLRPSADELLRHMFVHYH

MAP3K3 = target: T11, MAP3K3 (Homo sapiens, UniProt Q99759)
T11 construct: purchased Eurofins DiscoverX KINOMEscan
T11 sequence (Q99759 1-626): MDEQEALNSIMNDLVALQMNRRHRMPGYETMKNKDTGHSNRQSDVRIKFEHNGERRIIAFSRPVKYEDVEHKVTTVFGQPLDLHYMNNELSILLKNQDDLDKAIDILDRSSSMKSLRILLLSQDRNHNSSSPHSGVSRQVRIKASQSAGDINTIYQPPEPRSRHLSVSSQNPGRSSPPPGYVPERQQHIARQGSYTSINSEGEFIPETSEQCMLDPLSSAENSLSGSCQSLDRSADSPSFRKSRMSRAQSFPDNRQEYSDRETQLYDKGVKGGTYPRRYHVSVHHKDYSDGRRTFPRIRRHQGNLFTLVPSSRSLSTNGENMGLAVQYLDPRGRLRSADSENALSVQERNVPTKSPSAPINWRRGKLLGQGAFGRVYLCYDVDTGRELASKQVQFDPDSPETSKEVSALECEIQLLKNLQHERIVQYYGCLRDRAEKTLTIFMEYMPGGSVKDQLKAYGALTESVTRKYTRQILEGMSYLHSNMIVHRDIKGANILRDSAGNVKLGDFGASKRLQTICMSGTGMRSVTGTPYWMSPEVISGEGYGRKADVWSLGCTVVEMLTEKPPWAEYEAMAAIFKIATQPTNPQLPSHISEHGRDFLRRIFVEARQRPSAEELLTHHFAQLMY

PIP5K1A = target: T12, PIP5K1A (Homo sapiens, UniProt Q99755)
T12 construct: purchased Eurofins DiscoverX KINOMEscan
T12 sequence (Q99755 whole entry): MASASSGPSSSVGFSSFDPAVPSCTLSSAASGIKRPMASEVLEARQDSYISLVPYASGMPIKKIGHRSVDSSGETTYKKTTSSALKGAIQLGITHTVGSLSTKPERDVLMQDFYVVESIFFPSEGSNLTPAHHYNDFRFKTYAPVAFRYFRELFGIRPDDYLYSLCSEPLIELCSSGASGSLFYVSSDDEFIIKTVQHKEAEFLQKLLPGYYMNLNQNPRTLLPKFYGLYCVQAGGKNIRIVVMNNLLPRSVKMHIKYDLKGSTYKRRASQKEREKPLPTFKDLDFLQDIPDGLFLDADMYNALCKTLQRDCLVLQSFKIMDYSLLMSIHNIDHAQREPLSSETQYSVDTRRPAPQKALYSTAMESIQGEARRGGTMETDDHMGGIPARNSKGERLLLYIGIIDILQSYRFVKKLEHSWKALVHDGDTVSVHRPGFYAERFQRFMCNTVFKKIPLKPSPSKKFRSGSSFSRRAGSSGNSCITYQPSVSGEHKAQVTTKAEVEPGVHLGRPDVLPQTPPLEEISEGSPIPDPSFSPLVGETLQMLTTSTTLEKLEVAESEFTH

| Compound | remaining binding at 1 µM [1] [%] | remaining binding at 1 µM [2] [%] | remaining binding at 1 µM (ACVR2B) [%] | remaining binding at 1 µM (ALK(L1196M)) [%] | remaining binding at 1 µM (BRSK1) [%] | remaining binding at 1 µM (CDKL1) [%] | remaining binding at 1 µM (CSF1R) [%] | remaining binding at 1 µM (EGFR(T790M)) [%] | remaining binding at 1 µM (FGFR3(G697C)) [%] | remaining binding at 1 µM (MAP3K2) [%] | remaining binding at 1 µM (MAP3K3) [%] | remaining binding at 1 µM (PIP5K1A) [%] |
| --- | --- | --- | --- | --- | --- | --- | --- | --- | --- | --- | --- | --- |
| Clc1cc(NCC2CC2)c2ncc(-c3ccc4[nH]ncc4c3)n2n1 [compound 2, 6-Chloro-N-(cyclopropylmethyl)-3-(1H-indazol-5-yl)imidazo[1,2-b]pyridazin-8-amine] | 68 | 76 | 100 | 77 | 96 | 74 | 79 | 92 | 78 | 74 | 88 | 100 |
| O=C(CN1CCOCC1)N[C@H]1CC[C@H](Nc2cc(Cl)nn3c(-c4ccc5[nH]ncc5c4)cnc23)CC1 [compound 26] | 26 | 38 | 99 | 90 | 86 | 90 | 21 | 100 | 85 | 100 | 89 | 80 |
| CN1CCC(CNc2cc(Cl)nn3c(-c4cc5nc(Nc6ccccc6)[nH]c5cc4F)cnc23)CC1 [compound 31, 6-Chloro-3-(6-fluoro-2-(phenylamino)-1H-benzo[d]imidazol-5-yl)-N-((1-methylpiperidin-4-yl)methyl)imidazo[1,2-b]pyridazin-8-amine] | 76 | 71 | 100 | 94 | 100 | 67 | 60 | 100 | 91 | 62 | 73 | 91 |
